Experimental data taken from PubChem BioAssay (NCI).
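GI50 marks 50% less growth. TGI is the concentration that stops growth completely.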

Assays:
Experiment in all cases: growth of human tumour cells (NCI), 384-well format
[1] = tested on: 786-0 renal
[2] = tested on: A498 renal
[3] = tested on: A549 NSCLC
[4] = tested on: ACHN renal
[5] = tested on: BT-549 breast
[6] = tested on: CAKI-1 renal
[7] = tested on: CCRF-CEM leukemia
[8] = tested on: COLO 205 colon
[9] = tested on: DU-145 prostate
[10] = tested on: EKVX NSCLC
[11] = tested on: HCC-2998 colon
[12] = tested on: HCT-116 colon
[13] = tested on: HCT-15 colon
[14] = tested on: HL-60(TB) leukemia
[15] = tested on: HOP-62 NSCLC
[16] = tested on: HOP-92 NSCLC
[17] = tested on: HS 578T breast
[18] = tested on: HT29 colon
[19] = tested on: IGROV1 ovarian
[20] = tested on: K-562 leukemia
[21] = tested on: KM12 colon
[22] = tested on: LOX IMVI melanoma
[23] = tested on: M14 melanoma
[24] = tested on: MALME-3M melanoma
[25] = tested on: MCF7 breast
[26] = tested on: MDA-MB-231 breast
[27] = tested on: MDA-MB-435 melanoma
[28] = tested on: MDA-MB-468 breast
[29] = tested on: MOLT-4 leukemia
[30] = tested on: NCI-H226 lung
[31] = tested on: NCI-H23 lung
[32] = tested on: NCI-H322M lung
[33] = tested on: NCI-H460 NSCLC
[34] = tested on: NCI-H522 lung
[35] = tested on: NCI/ADR-RES ovarian
[36] = tested on: OVCAR-3 ovarian
[37] = tested on: OVCAR-4 ovarian
[38] = tested on: OVCAR-5 ovarian
[39] = tested on: PC-3 prostate
[40] = tested on: RPMI-8226 leukemia
[41] = tested on: RXF 393 renal
[42] = tested on: SF-268 CNS
[43] = tested on: SF-295 CNS
[44] = tested on: SF-539 CNS
[45] = tested on: SK-MEL-2 melanoma
[46] = tested on: SK-MEL-28 melanoma
[47] = tested on: SK-MEL-5 melanoma
[48] = tested on: SK-OV-3 ovarian
[49] = tested on: SN12C renal
[50] = tested on: SNB-19 CNS
[51] = tested on: SNB-75 CNS
[52] = tested on: SR leukemia
[53] = tested on: SW-620 colon
[54] = tested on: T-47D breast
[55] = tested on: TK-10 renal
[56] = tested on: U251 glioblastoma
[57] = tested on: UACC-257 melanoma
[58] = tested on: UACC-62 melanoma
[59] = tested on: UO-31 renal

## NC1(Cc2ccc(Cl)cc2)CCN(c2ncnc3[nH]ccc23)CC1
[1]
  GI50: 2.33 µM
  TGI: 12.1 µM
[2]
  GI50: 3.16 µM
  TGI: 14.8 µM
[3]
  GI50: 4.27 µM
  TGI: 15.5 µM
[4]
  GI50: 3.89 µM
  TGI: 15.8 µM
[5]
  GI50: 1.63 µM
  TGI: 5.8 µM
[6]
  GI50: 3.96 µM
  TGI: 16 µM
[7]
  GI50: 2.31 µM
  TGI: 10.8 µM
[8]
  GI50: 3.34 µM
  TGI: 12.3 µM
[9]
  GI50: 8.33 µM
  TGI: 23 µM
[10]
  GI50: 4.51 µM
  TGI: 16.5 µM
[11]
  GI50: 1.96 µM
  TGI: 5.94 µM
[12]
  GI50: 3.67 µM
  TGI: 13.4 µM
[13]
  GI50: 3.93 µM
  TGI: 17.8 µM
[14]
  GI50: 3.01 µM
  TGI: 9.25 µM
[15]
  GI50: 4.77 µM
  TGI: 17.2 µM
[16]
  GI50: 2.2 µM
  TGI: 9.62 µM
[17]
  GI50: 1.21 µM
  TGI: 6.14 µM
[18]
  GI50: 2.63 µM
  TGI: 12.3 µM
[19]
  GI50: 1.53 µM
  TGI: 9.67 µM
[20]
  GI50: 3.4 µM
  TGI: 15.7 µM
[21]
  GI50: 2.25 µM
  TGI: 11 µM
[22]
  GI50: 4.07 µM
  TGI: 13.7 µM
[23]
  GI50: 4.51 µM
  TGI: 16.1 µM
[24]
  GI50: 2.25 µM
  TGI: 5.8 µM
[25]
  GI50: 2.55 µM
  TGI: 12.7 µM
[26]
  GI50: 4.76 µM
  TGI: 16.4 µM
[27]
  GI50: 2.41 µM
  TGI: 6.35 µM
[28]
  GI50: 1.61 µM
  TGI: 6.55 µM
[29]
  GI50: 1.09 µM
  TGI: 2.6 µM
[30]
  GI50: 5.53 µM
  TGI: 18.1 µM
[31]
  GI50: 4 µM
  TGI: 16 µM
[32]
  GI50: 4.85 µM
  TGI: 17.6 µM
[33]
  GI50: 1.76 µM
  TGI: 9.36 µM
[34]
  GI50: 5.41 µM
  TGI: 19.5 µM
[35]
  GI50: 8.66 µM
  TGI: 21.1 µM
[36]
  GI50: 9.12 µM
  TGI: 21.4 µM
[37]
  GI50: 16.4 µM
  TGI: 43.9 µM
[38]
  GI50: 6.84 µM
  TGI: 26.7 µM
[39]
  GI50: 3.11 µM
  TGI: 15.8 µM
[40]
  GI50: 1.36 µM
  TGI: 4.48 µM
[41]
  GI50: 2.14 µM
  TGI: 7.4 µM
[42]
  GI50: 5.54 µM
  TGI: 18.2 µM
[43]
  GI50: 2.74 µM
  TGI: 14.8 µM
[44]
  GI50: 1.46 µM
  TGI: 7.16 µM
[45]
  GI50: 7.52 µM
  TGI: 19 µM
[46]
  GI50: 2.26 µM
  TGI: 5.94 µM
[47]
  GI50: 3.17 µM
  TGI: 12.8 µM
[48]
  GI50: 3.84 µM
  TGI: 17.3 µM
[49]
  GI50: 3.46 µM
  TGI: 14.9 µM
[50]
  GI50: 3.28 µM
  TGI: 13.5 µM
[51]
  GI50: 1.54 µM
  TGI: 7.76 µM
[52]
  GI50: 2.07 µM
  TGI: 4 µM
[53]
  GI50: 4.6 µM
  TGI: 16.2 µM
[54]
  GI50: 2.35 µM
  TGI: 12.7 µM
[55]
  GI50: 3.15 µM
  TGI: 13.3 µM
[56]
  GI50: 4.4 µM
  TGI: 15.7 µM
[57]
  GI50: 1.93 µM
  TGI: 3.96 µM
[58]
  GI50: 4.76 µM
  TGI: 16.4 µM
[59]
  GI50: 4.28 µM
  TGI: 17.6 µM
